{"source": "patent US20180289709A1", "about": "“METHODS OF TREATING INFLAMMATION” (priority 2010, published 2018)", "key": {"[1]": {"tested_on": "BMDCs", "assay": "qPCR of antiviral and inflammatory gene mRNAs in TLR-stimulated BMDCs", "details": "for transcription of mRNAs for antiviral cytokines (Ifnb1, Cxcl10): inhibitor 1 hour prior to stimulation"}, "[2]": {"tested_on": "pDCs (Flt3L-induced BMDCs)", "assay": "qPCR and nCounter mRNA measurement in plasmacytoid DCs stimulated with CpG-A, CpG-B or EMCV", "details": "1 μM"}, "[3]": {"tested_on": "BMDCs", "assay": "Genome-wide mRNA profiles (microarray) of BMDCs treated with BI 2536 or DMSO before LPS or poly(I:C)", "type": "cell-based, mouse", "details": "for antiviral genes among genes repressed by BI 2536 compared to DMSO: at least 3-fold change"}, "[4]": {"tested_on": "IRF3", "assay": "IRF3 nuclear translocation by confocal microscopy, BMDCs on silicon nanowires", "type": "cell-based, mouse", "method": "(§1) BMDCs were plated on top of etched silicon nanowires (Si NWs) coated with small molecules (Shalek et al., 2010). After 24 hours, cells were stimulated with LPS or poly(I:C), and then fixed in 4% formaldehyde in PBS (RT, 10 min). After fixation, each sample was permeabilized with 0.25% Triton-X 100 in PBS (RT, 10 min), incubated with Image-iT FX Signal Enhancer (RT, 30 min), and then blocked with 10% goat serum and 0.25% Triton-X 100 in PBS (RT, 1 hour). After washing, the samples were placed in 3% IgG-Free BSA & 0.25% Triton-X 100 in PBS that contained primary antibodies against either IRF3 or NF-κB P65 (1:175 dilution) and then rocked overnight at 4° C. The following day, the samples were washed with PBS and then incubated with an Alexa Fluor labeled secondary antibody (1:250 dilution) in 3% IgG-Free BSA & 0.25% Triton-X 100 in PBS (RT, 60 min). After washing with PBS, the samples were counterstained with 300 ng/mL of DAPI in PBS (RT, 30 min). For each experiment, every stimulus-molecule combination was prepared in triplicate. Once fixed, samples were imaged using an upright confocal microscope (Olympus). For each captured image, the nuclear fraction of the fluorescent protein was calculated after identifying nuclear boundaries using DAPI. Finally, distributions for this quantity across different conditions were compared using a one-way ANOVA analysis."}, "[5]": {"tested_on": "VSV", "type": "in vivo, mouse", "details": "mice, VSV intra-footpad, 6 hours post-infection"}, "[6]": {"tested_on": "BMDCs", "assay": "Cell cycle analysis (propidium iodide DNA content, flow cytometry)", "type": "cell-based, mouse", "details": "propidium iodide DNA content after 0, 6, 12 h treatment", "method": "Cells were fixed in ethanol, washed, and stained for 30 min at room temperature (RT) with propidium iodide (100 μg/mL) prepared in PBS (calcium- and magnesium-free) supplemented with RNAse A (2 mg/mL; Novagen) and triton X-100 (0.1%). Samples were analyzed for DNA content using an Accuri C6 flow cytometer (Accuri) and data was processed using the FlowJo software (Treestar)."}, "[7]": {"tested_on": "BMDCs", "assay": "SILAC-based phosphoproteomics of LPS-stimulated BMDCs pre-treated with BI 2536 versus DMSO"}, "[8]": {"tested_on": "primary mouse lung fibroblasts (MLFs)", "details": "1 μM"}, "[9]": {"details": "mouse, in vivo; cited from earlier work"}, "[10]": {"tested_on": "BMDCs", "assay": "IFN-β ELISA of BMDC culture supernatants", "type": "cell-based, mouse", "details": "BMDC supernatant, LPS 6 h; 1 μM", "method": "Cell culture supernatants were assayed using a sandwich ELISA kit for mouse IFN-β (PBL Biomedical Laboratories)."}, "[11]": {"details": "humans (Mross et al., 2008); cited from earlier work"}, "[12]": {"tested_on": "NF-κB p65", "assay": "NF-κB p65 nuclear translocation by confocal microscopy, BMDCs on silicon nanowires", "type": "cell-based, mouse", "details": "nanowire-mediated delivery; LPS 30 min", "method": "as §1"}, "[13]": {"tested_on": "BMDCs", "assay": "BMDC viability (Alamar blue)", "type": "cell-based, mouse", "details": "treatment pre-stimulation"}, "[14]": {"tested_on": "conventional DCs (GM-CSF-induced BMDCs)", "type": "cell-based, mouse"}, "[15]": {"details": "BMDCs, LPS, increasing amounts of BI 2536, dose-dependent"}, "[16]": {"details": "DCs stimulated with LPS, poly(I:C) or Pam3CSK4, 1 μM"}}, "note": "“Also recorded” adds a separate entry of the source. Like-named read-outs stand apart in the source and are kept apart here."}
{"smiles": "COc1cc2ncn(-c3cc(OCc4ccccc4C(F)(F)F)c(C(N)=O)s3)c2cc1OC", "note": "[5-(5,6-Dimethoxy-1H-benzimidazol-1-yl)-3-[[2-(trifluoromethyl)phenyl]methoxy]-2-thiophenecarboxamide]", "values": [{"measurement": "transcription of mRNAs for antiviral cytokines (Ifnb1, Cxcl10)", "setting": "[1]; BMDCs, LPS", "value": "abrogate"}]}
{"smiles": "CC[C@@H]1C(=O)N(C)c2cnc(Nc3ccc(C(=O)NC4CCN(C)CC4)cc3OC)nc2N1C1CCCC1", "note": "[BI 2536]", "values": [{"measurement": "CpG-B-specific signature genes (nCounter)", "setting": "[2]; 6 h", "value": "a minor effect, if any"}, {"measurement": "signature genes induced by CpG-A alone or by both CpG-A and -B (nCounter)", "setting": "[2]; 6 h", "value": "repressed"}, {"measurement": "transcription of mRNAs for Ifnb1, Ifna2 and Cxcl10", "setting": "[2]; CpG-A stimulation or EMCV infection (MOI 10)", "value": "nearly abrogated"}, {"measurement": "Cxcl1 mRNA", "setting": "[2]; CpG-B", "value": "moderately increasing"}, {"measurement": "Cxcl10 mRNA", "setting": "[2]; CpG-B", "value": "decreased"}, {"measurement": "antiviral genes among genes repressed by BI 2536 compared to DMSO", "setting": "[3]; LPS", "value": "67/194"}, {"measurement": "unique LPS- and/or poly(I:C)-induced genes repressed", "setting": "[3]; downregulated 3-fold upon LPS or poly(I:C) stimulation", "value": 311, "unit": "genes"}, {"measurement": "antiviral genes among genes repressed by BI 2536 compared to DMSO", "setting": "[3]; poly(I:C), P<1×10^−71, hypergeometric test", "value": "99/193"}, {"measurement": "Cxcl1 expression (qPCR)", "setting": "[1]; BMDCs, LPS, increasing amounts of BI 2536", "value": "not significantly affected"}, {"measurement": "Cxcl10 mRNA level (qPCR)", "setting": "[1]; [15]", "value": "reduced"}, {"measurement": "Ifnb1 mRNA level (qPCR)", "setting": "[1]; [15]", "value": "reduced"}, {"measurement": "expression of 12 well-studied antiviral genes (qPCR)", "setting": "[1]; [16]", "value": "strongly inhibited"}, {"measurement": "inflammatory gene expression (qPCR)", "setting": "[1]; [16]", "value": "remained largely unaffected"}, {"measurement": "IRF3 nuclear translocation", "setting": "[4]; nanowire-mediated delivery, poly(I:C) 2 h or LPS 45 min, dose-dependent", "value": "inhibited"}, {"measurement": "IRF3 translocation, delivery in solution", "setting": "[4]; poly(I:C) 2 h, lesser extent than nanowire-mediated delivery", "value": "decreased"}, {"measurement": "Ifna2 mRNA (type I IFN α2) in popliteal lymph nodes", "setting": "[5]", "value": "inhibits"}, {"measurement": "VSV replication in the lymph node (VSV RNA levels)", "setting": "[5]", "value": "rapidly increased"}, {"measurement": "antiviral cytokine mRNA (Ifnb1, Cxcl10) in popliteal lymph nodes", "setting": "[5]; 500 μg i.v. and 50 μg footpad", "value": "strongly suppressed; also recorded: inhibits"}, {"measurement": "cell cycle state of BMDCs", "setting": "[6]", "value": "neither impacted"}, {"measurement": "phosphorylation levels of Jun family cell cycle regulators (Jund)", "setting": "[7]; LPS", "value": "decreased"}, {"measurement": "phosphorylation levels of mitotic kinases Nek6 and Nek7", "setting": "[7]; LPS", "value": "decreased"}, {"measurement": "phosphorylation levels of proteins in the TBK1/IKK-ε/IRF3 axis", "setting": "[7]; LPS", "value": "unchanged"}, {"measurement": "distinct proteins from which the changed phosphopeptides derive", "setting": "[7]; LPS 30 or 120 min, 1 μM", "value": 413, "unit": "proteins"}, {"measurement": "phosphopeptides with significant (P<0.001) change in level", "setting": "[7]; LPS 30 or 120 min, 1 μM", "value": 510, "unit": "phosphopeptides"}, {"measurement": "drug-induced toxicity (cell viability, CellTiter-Glo)", "setting": "[8]", "value": "not due to drug-induced toxicity"}, {"measurement": "interferon production (Ifnb1 mRNA)", "setting": "[8]", "value": "failed to produce interferon"}, {"measurement": "tolerability", "setting": "[9]", "value": "good tolerability"}, {"measurement": "secreted IFN-β (ELISA)", "setting": "[10]", "value": "reduced; also recorded: strongly inhibits"}, {"measurement": "tolerability", "setting": "[11]", "value": "good tolerability"}, {"measurement": "NF-κB p65 localization", "setting": "[12]", "value": "did not affect"}, {"measurement": "viability of BMDCs", "setting": "[13]", "value": "neither impacted"}, {"measurement": "mRNA level of Cxcl1", "setting": "[14]", "value": "neither affected"}, {"measurement": "transcription of antiviral genes (Ifnb1 and Cxcl10)", "setting": "[14]; 1 μM", "value": "inhibited"}]}
{"smiles": "COc1ccc(Br)cc1/C=c1\\sc2nc(=O)c(C)nn2c1=O", "note": "[Poloxipan]", "values": [{"measurement": "transcription of mRNAs for antiviral cytokines (Ifnb1, Cxcl10)", "setting": "[1]; BMDCs, LPS", "value": "abrogate"}]}
